Among the data in patent US7449463B2, “Morpholinyl containing benzimidazoles as inhibitors of respiratory syncytial virus replication” (Tibotec Pharmaceuticals Ltd., priority 2003, dated 2008) are Activity values, retold here.

This experiment concerns Respiratory Syncytial Virus. In words: microbe, parasite or virus in culture. It is filed as cell-based. From the text: In vitro Screening for Activity against Respiratory Syncytial Virus.
The percent protection against cytopathology caused by viruses (antiviral activity or EC50) achieved by tested compounds and their cytotoxicity (CC50) are both calculated from dose-response curves. The selectivity of the antiviral effect is represented by the selectivity index (SI), calculated by dividing the CC50 (cytotoxic dose for 50% of the cells) by the EC50 (antiviral activity for 50% of the cells).
Automated tetrazolium-based colorimetric assays were used for determination of EC50 and CC50 of test compounds. Flat-bottom, 96-well plastic microtiter trays were filled with 180 μl of Eagle's Basal Medium, supplemented with 5% FCS (0% for FLU) and 20 mM Hepes buffer. Subsequently, stock solutions (7.8× final test concentration) of compounds were added in 45 μl volumes to a series of triplicate wells so as to allow simultaneous evaluation of their effects on virus- and mock-infected cells. Five five-fold dilutions were made directly in the microtiter trays using a robot system. Untreated virus controls, and HeLa cell controls were included in each test. Approximately 100 TCID50 of Respiratory Syncytial Virus was added to two of the three rows in a volume of 50 μl. The same volume of medium was added to the third row to measure the cytotoxicity of the compounds at the same concentrations as those used to measure the antiviral activity. After two hours of incubation, a suspension (4×10^5 cells/ml) of HeLa cells was added to all wells in a volume of 50 μl. The cultures were incubated at 37° C. in a 5% CO2 atmosphere. Seven days after infection the cytotoxicity and the antiviral activity was examined spectrophotometrically. To each well of the microtiter tray, 25 μl of a solution of MTT (3-(4,5-dimethylthiazol-2-yl)-2,5-diphenyltetrazolium bromide) was added. The trays were further incubated at 37° C. for 2 hours, after which the medium was removed from each cup. Solubilization of the formazan crystals was achieved by adding 100 μl 2-propanol. Complete dissolution of the formazan crystals were obtained after the trays have been placed on a plate shaker for 10 min. Finally, the absorbances were read in an eight-channel computer-controlled photometer (Multiskan MCC, Flow Laboratories) at two wavelengths (540 and 690 nm). The absorbance measured at 690 nm was automatically subtracted from the absorbance at 540 nm, so as to eliminate the effects of non-specific absorption.

The mark [1] stands for this setting: RSV-infected HeLa cells, MTT readout seven days after infection, −log of EC50 in molar units.
Where [2] appears, read: pEC50 (−log of EC50 when expressed in molar units), protection against RSV cytopathology.

Under setting [1], `Cc1ccc(O)c(Cn2c(NC3CCN(CCN4CCOCC4)CC3)nc3ccc(CO)cc32)n1` [Compound 168] yielded an Activity of 6.5.
`Cc1ccc(O)c(Cn2c(NCCCN3CCSCC3)nc3ccc(CO)cc32)n1` [Compound 182]: under setting [1], the Activity worked out at 7.1.
`Cc1ccc(O)c(Cn2c(NCCCN3CCOCC3)nc3ccc(CNc4cccc(C)c4CCO)cc32)n1` [Compound 25] gave an Activity under setting [1] of 8.9.
`Cc1ccc(O)c(Cn2c(NCCCN3CCOCC3)nc3ccc(CN(c4ccccc4)c4ccc(O)cc4)cc32)n1` [Compound 106] came in with an Activity under setting [1] of 8.1.
For `COc1ccc(C)nc1Cn1c(NCCCN2CCOCC2)nc2ccc(CNc3cc(C)ccc3CCO)cc21` [Compound 220], the Activity under setting [2] was 8.6.
Same read-out and setting: next, `Cc1ccc(NCc2ccc3nc(NCCCN4CCOCC4)n(Cc4nc(C)c(C)nc4C)c3c2)c(CO)c1` [Compound 284]: 7.1; `COc1ccc(C)nc1Cn1c(NCCCN2CCOCC2)nc2cc(CNc3cc(C)ccc3CCCO)ccc21` [Compound 348]: 4.8.
Under setting [1], `Cc1ccc(O)c(Cn2c(NCCCN3CCOCC3)nc3ccc(CNc4ccccc4CN)cc32)n1` [Compound 108] returned an Activity of 8.
On the same count and under the same terms, next, `Cc1ccc(O)c(Cn2c(NCCCN3CCOCC3)nc3ccc(CNc4ccc(C(N)=O)cc4)cc32)n1` [Compound 38]: 8.5.
Under setting [2], `COc1ccc(C)nc1Cn1c(NCCCN2CCOCC2)nc2ccc(CN(CCO)c3cc(C)cc(C)c3)cc21` [Compound 240] showed an Activity of 7.9.
In the case of `Cc1nc(C)c(Cn2c(NCCCN3CCOCC3)nc3ccc(CNc4cc(Cl)cc(Cl)c4)cc32)nc1C` [Compound 289], under setting [2], the Activity amounted to 7.
In the case of `C#Cc1ccc(CCO)c(NCc2ccc3nc(NCCCN4CCOCC4)n(Cc4nc(C)ccc4O)c3c2)c1` [Compound 10], under setting [1], the Activity was found to be 9.6.
On to `Cc1ccc(CCCO)c(NCc2ccc3nc(NCCCN4CCOCC4)n(Cc4cccc(C)n4)c3c2)c1` [Compound 274], for which the Activity under setting [2] was determined as 7.2.
Turning to `Cc1ccc(O)c(Cn2c(NCCCN3CCOCC3)nc3ccc(CNc4ccccc4C#N)cc32)n1` [Compound 27], the Activity under setting [1] amounted to 8.7.
Take `Cn1cnc2c(Cn3c(NCCCN4CCOCC4)nc4ccc(CNc5cc(C(F)(F)F)ccc5CCCO)cc43)cccc21` [Compound 241]: the Activity under setting [2] came out at 7.9.
In the case of `Cc1cc(C)cc(N(CCCCCO)Cc2ccc3nc(NCCCN4CCOCC4)n(Cc4nc(C)ccc4O)c3c2)c1` [Compound 64], under setting [1], the Activity is 9.3.
Consider `Cc1cccc(NCc2ccc3nc(NCCCN4CCOCC4)n(Cc4cccc5c4ncn5C)c3c2)c1CCO` [Compound 277], for which, under setting [2], the Activity amounted to 7.1.
`Cc1cccc(NCc2ccc3c(c2)nc(NCCCN2CCOCC2)n3C2CCCc3nc(C)c(C)nc32)c1CCO` (centres unmarked) [Compound 292] gave an Activity under setting [2] of 7.
Under setting [1], `Cc1ccc(O)c(Cn2c(NCCCN3CCOCC3)nc3ccc(CN(CCO)c4ccccc4CCO)cc32)n1` [Compound 107] registered an Activity of 8.1.
`Cc1cccc(NCc2ccc3nc(NCCCN4CCOCC4)n(Cc4cccc(C)n4)c3c2)c1` [Compound 338] gave an Activity under setting [2] of 5.4.
The compound `Cc1cc(C)cc(N(CCCC(N)=O)Cc2ccc3nc(NCC(O)CN4CCOCC4)n(Cc4nc(C)ccc4O)c3c2)c1.Cl` (centres unmarked) [Compound 178, 4-{(3,5-Dimethyl-phenyl)-[3-(3-hydroxy-6-methyl-pyridin-2-ylmethyl)-2-(2-hydroxy-3-morpholin-4-yl-propylamino)-3H-benzoimidazol-5-ylmethyl]-amino}-butyramide, HCl salt] showed an Activity under setting [1] of 9.6.
Still for that read-out and setting: next, `COCCN(Cc1ccc2nc(NCCCN3CCOCC3)n(Cc3nc(C)ccc3O)c2c1)c1cc(C)cc(C)c1` [Compound 82]: 8.6; `Cc1ccc(OCCO)c(NCc2ccc3nc(NCCCN4CCOCC4)n(Cc4nc(C)ccc4O)c3c2)c1` [Compound 5]: 9.8.
For `Cc1cccc(NCc2ccc3nc(NCCCN4CCOCC4)n(Cc4cccc5c4ncn5C)c3c2)c1` [Compound 295], the Activity under setting [2] worked out at 6.9.
As to `COc1ccc(CCO)c(NCc2ccc3nc(NCCCN4CCOCC4)n(Cc4nc(C)ccc4O)c3c2)c1` [Compound 9], under setting [1], the Activity is 9.6.
As to `COc1ccc(C)nc1Cn1c(NCCCN2CCOCC2)nc2ccc(CNc3ccccc3CO)cc21` [Compound 279], the Activity under setting [2] is 7.1.
Still for that read-out and setting: to `COc1ccc(C)nc1Cn1c(NCCCN2CCOCC2)nc2ccc(CNc3cccc(Br)c3)cc21` [Compound 297] belongs 6.9.
For the compound `Cc1cccc(N(CCN(C)C)Cc2ccc3nc(NCCCN4CCOCC4)n(Cc4nc(C)ccc4O)c3c2)c1` [Compound 100], the Activity under setting [1] worked out at 8.4.
The same measure, in the same setting: to `Cc1ccc(O)c(Cn2c(NCCCN3CCOCC3)nc3ccc(CN(CCO)c4cccc(Br)c4)cc32)n1` [Compound 85] belongs 9.3.
In the case of `COc1ccc(C)nc1Cn1c(NCCCN2CCOCC2)nc2ccc(CNc3cccc(C)c3CO)cc21` [Compound 298], the Activity under setting [2] came out at 6.9.
`Cc1cc(C)cc(N(Cc2ccc3nc(NCCCN4CCOCC4)n(Cc4nc(C)ccc4O)c3c2)Cc2c[nH]cn2)c1` [Compound 81]: under setting [1], the Activity was determined as 8.9.
Same read-out and setting: next, `Cc1ccc(O)c(Cn2c(NCCCN3CC(C)OC(C)C3)nc3ccc(CO)cc32)n1` (centres unmarked) [Compound 177]: 5.7.
`Cc1ccc(CCCO)c(NCc2ccc3nc(NCCCN4CCOCC4)n(Cc4ccccc4O)c3c2)c1` [Compound 227] displayed an Activity under setting [2] of 8.5.
On to `Cc1cc(C)cc(N(CCCCO)Cc2ccc3nc(NCCCN4CCOCC4)n(Cc4nc(C)ccc4O)c3c2)c1` [Compound 61], for which the Activity under setting [1] is given as 9.5.
As for “2-[5,7-dimethyl-2-(2-morpholin-4-ylethyl-piperidin-4-ylamino)-benzoindazol-1-ylmethyl]-6-methyl-pyridin-3-ol [Compound 162]”, the Activity under setting [1] turned out to be 7.9.
Regarding `Cc1cc(C)cc(NCc2ccc3nc(NCCCN4CCOCC4)n(Cc4cccc(C)n4)c3c2)c1` [Compound 334], the Activity under setting [2] was found to be 5.5.
Same read-out and setting: to “4-{(3,5-Dimethyl-phenyl)-[3-(3-hydroxy-pyridin-2-ylmethyl)-2-(3-morpholin-4-yl-propylamino)-3H-benzoimidazol-5-ylmethyl]-amino}-butyramide [Compound 228]” belongs 8.4.
Take `Cc1ccc(O)c(Cn2c(NCCCN3CCOCC3)nc3ccc(CNc4cccc(F)c4)cc32)n1` [Compound 35]: the Activity under setting [1] amounted to 8.5.
In turn, `Cc1ccc(O)c(Cn2c(NCCCN3CCOCC3)nc3ccc(CNc4cccc(Cl)c4)cc32)n1` [Compound 31] returned an Activity under setting [1] of 8.6.
For `COc1ccc(CCCO)c(NCc2ccc3nc(NCCCN4CCOCC4)n(Cc4nc(C)ccc4O)c3c2)c1` [Compound 14], the Activity under setting [1] stood at 9.4.
Take `Cc1ccc(O)c(Cn2c(NCCCN3CCOCC3)nc3ccc(CNc4cc(Br)ccc4CCCO)cc32)n1` [Compound 2]: the Activity under setting [1] came to 10.
Regarding `Cc1ccc(CCCCO)c(NCc2ccc3nc(NCCCN4CCOCC4)n(Cc4nc(C)ccc4O)c3c2)c1` [Compound 20], under setting [1], the Activity is 9.2.
Regarding `Cc1ccc(O)c(Cn2c(NCCCN3CCOCC3)nc3ccc(CNc4cccc(OC(F)(F)F)c4)cc32)n1` [Compound 36], under setting [1], the Activity was determined as 8.5.
Turning to `Cc1cccc(NCc2ccc3nc(NCCCN4CCOCC4)n(Cc4nc(C)c(C)nc4C)c3c2)c1CCO` [Compound 282], under setting [2], the Activity is 7.1.
Same read-out and setting: next, `Cc1ccc(CCCO)c(NCc2ccc3c(c2)nc(NCCCN2CCOCC2)n3Cc2ncccc2O)c1` [Compound 301]: 6.8; `OCCCc1ccc(C(F)(F)F)cc1NCc1ccc2nc(NCCCN3CCOCC3)n(Cc3ncccc3O)c2c1` [Compound 216]: 8.7; `Cn1cnc2c(Cn3c(NCCCN4CCOCC4)nc4ccc(CNc5ccc(C(N)=O)cc5)cc43)cccc21` [Compound 296]: 6.9.
`Cc1ccc(CCC(C)O)c(NCc2ccc3nc(NCCCN4CCOCC4)n(Cc4nc(C)ccc4O)c3c2)c1` (centres unmarked) [Compound 15] yielded an Activity under setting [1] of 9.3.
On to `Cc1ccc(CCO)c(NCc2ccc3nc(NCCCN4CCOCC4)n(Cc4cccc5c4ncn5C)c3c2)c1` [Compound 229], for which the Activity under setting [2] came to 8.4.
The same measure, in the same setting: to `Cc1cccc(Cn2c(NCCCN3CCOCC3)nc3ccc(CNc4cccc(C)c4CO)cc32)n1` [Compound 347] belongs 4.9; to `Cc1nc(C)c(Cn2c(NCCCN3CCOCC3)nc3ccc(CNc4ccccc4CCN4CCOCC4)cc32)nc1C` [Compound 299], 6.9.
Under setting [1], `Cc1ccc(NCCO)c(NCc2ccc3nc(NCCCN4CCOCC4)n(Cc4nc(C)ccc4O)c3c2)c1` [Compound 39] yielded an Activity of 8.5.
Under setting [2], `Cc1nc(C)c(Cn2c(NCCCN3CCOCC3)nc3ccc(CNc4cccc(CCO)c4)cc32)nc1C` [Compound 300] had an Activity of 6.9.
